Peptide text beside a SMILES is read from it.
Key:
[1] = cited from earlier work
[2] = cited from earlier work; remark: listed apart in the source
healthy person = assay: Wake-up remedial effect of alanylglutamine on daily consumption (Test Examples 1 and 2); assay type: in vivo, human; conditions: continuously for 1 month
Excerpt: Test examples in which the wake-up remedial effect of alanylglutamine was examined are indicated below.

**Q.** With `C[C@H](N)C(=O)N[C@@H](CCC(N)=O)C(=O)O` [alanylglutamine] (H-Ala-Gln-OH) as the compound, how does the heat stability ([1]; compared to glutamine) read?
**A.** superior

**Q.** And the “solubility in aqueous solutions” value ([1]; compared to glutamine)?
**A.** superior

**Q.** What about the “degradation in the body” value [2] of the same compound?
**A.** immediately degraded into alanine and glutamine

**Q.** What about the awaking (healthy person; 0.5 g daily before going to bed) of the same compound?
**A.** improvement in awaking

**Q.** What about the awaking (healthy person; 1.5 g daily) of the same compound?
**A.** improvement in awaking

**Q.** With `NC(=O)CC[C@H](N)C(=O)O` [glutamine, reference compound] as the compound, how does the solubility [1] read?
**A.** low-solubility
